{"source": "patent US10183962B2", "about": "“Synthetic oligomers of Neisseria meningitis serogroup X and process of preparing them” (MSD WELLCOME TRUST HILLEMAN LA[…]. LTD., priority 2014, dated 2019)", "system": "rabbit antiserum against N. meningitidis serogroup X (anti-Men-X antibodies binding to bacterial Men-X polysaccharide)", "assay": "competition (inhibition) ELISA, antigenicity of synthetic Men-X tetramer and its TT conjugate", "settings": "antigen at 10-1000 μg oligosaccharide/ml; antiserum diluted eight thousand fold; relative to no antigen control; FIG. 1, alpha anomer, triplicate"}
{"substance": "6-Aminohexyl (2-acetamido-2-deoxy-α-D-glucopyranosyl phosphate)-(1→4)-(2-acetamido-2-deoxy-α-D-glucopyranosyl phosphate)-(1→4)-(2-acetamido-2-deoxy-α-D-glucopyranosyl phosphate)-(1→4)-2-acetamido-2-deoxy-α-D-glucopyranoside, tris-sodium salt [Men X Tetramer 1]", "values": [{"measurement": "percentage inhibition of binding of anti-Men-X antibodies to bacterial Men-X polysaccharide coated on plate", "value": "up to 68%"}]}
